Reference: patent publication US12090225B2 (Avalyn Pharma Inc., priority 2018, dated 2024)
In brackets after ≈: the same amount, converted by molar mass.

Tests used:
[1] = Pattern stability screen of potential salts (40° C./75% RH, XRPD); assay type: physicochemical
Method: XRPD analysis was carried out on a PANalytical X'pert pro, scanning the samples between 3 and 35° 20. The material was gently compressed and loaded onto a multi-well plate with Kapton or Mylar polymer film to support the sample.
Primary Salt Screening. […] The solvent systems shown in Table were selected for salt screening. For sulfonic acids MEK was used instead of methanol and acetone:water 50:50 (v/v) was used instead of IPA:water to avoid any potential genotoxic impurities. Ca. […] If the acid was insoluble in the selected solvent, a slurry was used. If the acid was a liquid it was added to the API slurry from a stock solution in the allocated solvent. The mixtures of API/counterion/solvent were temperature cycled between ambient and 40° C. in 4 hour cycles for ca. 3 days. Any solids present were isolated and allowed to dry at ambient conditions, for ca. 30 minutes prior to analysis by XRPD. Where solutions were obtained they were evaporated to obtain solid material.

[2] = 7 day stability testing of salts (40° C./75% RH, 80° C., ambient light; HPLC purity, XRPD); assay type: physicochemical; settings: for Purity (%) / XRPD pattern after 7 day stability testing: listed as HBr salt
Method: High Performance Liquid Chromatography-Ultraviolet Detection (HPLC-UV): Instrument: Dionex Ultimate 3000; Column: Acquity CSH C18 100 mm×2.1 mm 1.7 μm; Column Temperature: 50° C.; Autosampler Temperature: Ambient; UV wavelength: 210 nm; Injection Volume: 4 μL; Flow Rate: 0.6 mL/min; Mobile Phase A: 0.1% formic acid in water; Mobile Phase B: 0.1% formic acid in acetonitrile. The HPLC method used the gradient in Table 2.
FT-IR appeared to be consistent with the structure. […] The material was physically stable to changes in temperature and humidity when stored for one week.
A new, poorly crystalline pattern was produced when stored at 40° C./75% RH—Pattern 4.
Purity of these materials remained unchanged (as shown in Table) apart from the sample stored at ambient light, where a 0.5% drop in purity was observed.

[3] = Disproportionation/hydration studies (pH, XRPD pattern); assay type: physicochemical; settings: for pH Pre-Agitation: listed as HBr salt
Description: No XRPD data could be compiled on the hydration or disproportionation of the salt due to the high solubility in water and acetone/water mixtures.
The salt only remained Pattern 1 at 0.3 aw. New patterns 6 and 7 are likely hydrated due to the high water activity conditions for production.

[4] = Aqueous solubility assessment of salts; assay type: physicochemical; settings: primary screen samples
[5] = Citrate buffer formulation; assay type: physicochemical
[6] = 0.5 mg/mL solubility assessment (filtered/unfiltered); assay type: physicochemical; settings: 0.5 mg/mL experiment; for pH: listed as HBr
[7] = Solid state and chemical stability of nintedanib HBr and HCl salts through 6 months; assay type: physicochemical; settings: for Weight loss: TGA/DSC
Description: Table 24 and Table 25 summarize the total impurities (by HPLC), polymorphic form (by X-ray powder diffraction) and, where applicable, weight loss (by TGA/DSC) for both the HCl and HBr salt forms. […] There were no changes in polymorphic form for both salt forms stored at 25 C/60% RH condition.

[8] = Feasibility assessment of ready-to-use nintedanib HBr, HCl and esylate formulations; assay type: physicochemical; settings: NaCl at 30 mM or higher concentrations
[9] = Inhaled pharmacokinetics of nintedanib salt forms (intratracheal); assay type: in vivo, C57BL/6 mice; settings: 1 mg/kg (base equivalent) IT, mice; listed as nintedanib hydrobromide
[10] = Therapeutic bleomycin model: dose levels and lung pharmacokinetic comparison; assay type: in vivo, Sprague Dawley rats; settings: rat
[11] = Formulation development/optimization and long-term stability of nintedanib HBr and HCl formulations
[12] = Solvent solubility screen; assay type: physicochemical; settings: thermodynamic from solid, read-out: Approximate Solubility
Method: Between each addition, the mixture was checked for dissolution and where no dissolution was apparent, the mixture was heated to ca. 40° C. and checked again. Samples where the material dissolved, were left to evaporate. Any solids produced from evaporation samples were analyzed by XRPD in order to assess the polymorphic form.
The solvent systems used during the solvent solubility screen, together with the corresponding ICH Class, are detailed in Table 4.

[13] = Human inhaled dose projection vs Ofev 150 mg oral; settings: human projection
[14] = cited from earlier work
[15] = 0.5 mg/mL citrate buffer experiments, listed as HBr
[16] = 40° C./75% RH, 2 months, listed as Nintedanib HBr salt
[17] = 40° C./75% RH, 6 months, listed as Nintedanib HBr salt

Question: With `COC(=O)c1ccc2c(c1)NC(=O)/C2=C(\Nc1ccc(N(C)C(=O)CN2CCN(C)CC2)cc1)c1ccccc1` [Nintedanib HBr] as the molecule, how does the “XRPD pattern after 72 hrs 40° C./75% RH” value ([1]; Initial pattern 3, listed as HBr) read?
Answer: 3

Question: What about the “XRPD pattern after 72 hrs 40° C./75% RH” value ([1]; Initial pattern 4) of the same molecule?
Answer: 4

Question: And the “XRPD pattern after 72 hrs 40° C./75% RH” value ([1]; Initial pattern 5)?
Answer: 5

Question: And the “Purity (%)” value ([2]; 40° C./75% RH, 7 day stability testing)?
Answer: 99.7%

Question: And the “XRPD pattern after 7 day stability testing” value ([2]; 40° C./75% RH)?
Answer: mixture of Pattern 1 and 4

Question: What about the “XRPD pattern after 7 day stability testing” value ([2]; 80° C. and ambient conditions/light) of the same molecule?
Answer: remain Pattern 1

Question: And the “Purity (%)” value ([2]; 80° C., 7 day stability testing)?
Answer: 99.6%

Question: And the “Purity (%)” value ([2]; Ambient, 7 day stability testing)?
Answer: 99.2%

Question: And the “Purity (%)” value ([2]; Input)?
Answer: 99.7%

Question: What about the drop in purity ([2]; stored at ambient light, 7 day) of the same molecule?
Answer: 0.5%

Question: And the “Pattern (disproportionation/hydration)” value ([3]; Water Activity 0.3)?
Answer: 1

Question: And the “pH Pre-Agitation” value ([3]; Water Activity 0.3 (acetone/water))?
Answer: 4.84

Question: What about the “Pattern (disproportionation/hydration)” value ([3]; Water Activity 0.6) of the same molecule?
Answer: 4

Question: What about the “pH Pre-Agitation” value ([3]; Water Activity 0.6 (acetone/water)) of the same molecule?
Answer: 5.38

Question: What about the “Pattern (disproportionation/hydration)” value ([3]; Water Activity 0.9) of the same molecule?
Answer: New pattern (Pattern 6)

Question: And the “pH Pre-Agitation” value ([3]; Water Activity 0.9 (acetone/water))?
Answer: 5.56

Question: What about the “Pattern (disproportionation/hydration)” value ([3]; Water Activity 1) of the same molecule?
Answer: New pattern (Pattern 7)

Question: And the “pH Pre-Agitation” value ([3]; Water Activity 1.0 (water))?
Answer: 2.27

Question: And the “pH (aqueous solubility measurement)” value [4]?
Answer: 3.95

Question: What about the solubility ([4]; water, thermodynamic from solid, read-out: Solubility (aqueous)) of the same molecule?
Answer: ~5000 µg/mL

Question: And the “Initial pH” value [5, 15]?
Answer: 4.83

Question: And the “pH 1 h” value [5, 15]?
Answer: 4.82

Question: And the “attempt to solubilize in citrate buffer” value ([5]; pH 4.8 buffer, ca. 0.5 mg/mL (Nintedanib))?
Answer: unsuccessful

Question: And the “concentration for filtered sample compared to unfiltered” value ([6]; listed as HBr salt)?
Answer: 94%

Question: What about the pH ([6]; Filtered) of the same molecule?
Answer: 5.31

Question: What about the pH ([6]; Unfiltered) of the same molecule?
Answer: 5.12

Question: What about the Polymorphic form ([7]; 25° C./60 % RH, 1 week) of the same molecule?
Answer: Pattern 1

Question: And the Total impurities ([7]; 25° C./60 % RH, 1 week, listed as Nintedanib HBr salt)?
Answer: 0.40%

Question: What about the Polymorphic form ([7]; 25° C./60 % RH, 2 months) of the same molecule?
Answer: Pattern 1

Question: What about the Total impurities ([7]; 25° C./60 % RH, 2 months, listed as Nintedanib HBr salt) of the same molecule?
Answer: 0.42%

Question: What about the Polymorphic form ([7]; 25° C./60 % RH, 4 weeks) of the same molecule?
Answer: Pattern 1

Question: And the Total impurities ([7]; 25° C./60 % RH, 4 weeks, listed as Nintedanib HBr salt)?
Answer: 0.33%

Question: What about the Polymorphic form ([7]; 25° C./60 % RH, 6 months) of the same molecule?
Answer: Pattern 1

Question: What about the Total impurities ([7]; 25° C./60 % RH, 6 months, listed as Nintedanib HBr salt) of the same molecule?
Answer: 0.47%

Question: What about the Polymorphic form ([7]; 25° C./60 % RH, Initial) of the same molecule?
Answer: Pattern 1

Question: And the Weight loss ([7]; 25° C./60 % RH, Initial, listed as Nintedanib HBr salt)?
Answer: 0.23%

Question: What about the Total impurities ([7]; 40° C./75% RH, 1 week, listed as Nintedanib HBr salt) of the same molecule?
Answer: 0.43%

Question: What about the Weight loss ([7]; 40° C./75% RH, 2 months) of the same molecule?
Answer: 4.12%

Question: And the Polymorphic form [7, 16]?
Answer: Pattern 4

Question: And the Total impurities [7, 16]?
Answer: 0.41%

Question: What about the Weight loss ([7]; 40° C./75% RH, 4 weeks) of the same molecule?
Answer: 1.33%

Question: And the Weight loss ([7]; 40° C./75% RH, 6 months)?
Answer: 3.72%

Question: What about the Polymorphic form [7, 17] of the same molecule?
Answer: Pattern 4

Question: What about the Total impurities [7, 17] of the same molecule?
Answer: 0.44%

Question: What about the Weight loss ([7]; 40° C./75% RH, Initial, listed as Nintedanib HBr salt) of the same molecule?
Answer: 0.23%

Question: What about the “compatibility with NaCl” value [8] of the same molecule?
Answer: Neither Nintedanib HBr nor Nintedanib HCl is compatible

Question: And the lung half-life [9]?
Answer: about 4 minutes

Question: What about the “Lung AUC” value ([10]; Oropharyngeal (OP) 0.05 mg/kg) of the same molecule?
Answer: 1.6 mg·h/kg

Question: What about the “Lung Cmax” value ([10]; Oropharyngeal (OP) 0.05 mg/kg) of the same molecule?
Answer: 1.4 µg/g

Question: What about the “Lung AUC” value ([10]; Oropharyngeal (OP) 0.25 mg/kg) of the same molecule?
Answer: 7.8 mg·h/kg

Question: And the “Lung Cmax” value ([10]; Oropharyngeal (OP) 0.25 mg/kg)?
Answer: 7.0 µg/g

Question: And the “Lung AUC” value ([10]; Oropharyngeal (OP) 0.375 mg/kg)?
Answer: 11.6 mg·h/kg

Question: And the “Lung Cmax” value ([10]; Oropharyngeal (OP) 0.375 mg/kg)?
Answer: 10.5 µg/g

Question: What about the “compatibility with citric acid, fumaric acid” value [11] of the same molecule?
Answer: incompatible

Question: What about the “upper concentration limit (no re-crystallization)” value [11] of the same molecule?
Answer: 1.38 mg/mL

Question: What does the source list for `COC(=O)c1ccc2c(c1)NC(=O)/C2=C(\Nc1ccc(N(C)C(=O)CN2CCN(C)CC2)cc1)c1ccccc1` [Nintedanib, methyl (3Z)-3-[[4-[methyl-[2-(4-methylpiperazin-1-yl)acetyl]amino]anilino]-phenylmethylidene]-2-oxo-1H-indole-6-carboxylate]?
Answer: solubility ([12]; 1-butanol, 40 °C, organic solvent or mixture): < 10000 µg/mL; solubility ([12]; 1-propanol, 40 °C, organic solvent or mixture): < 10000 µg/mL; solubility ([12]; 2-propanol, 40 °C, organic solvent or mixture): < 11000 µg/mL; solubility ([12]; 40 °C, aqueous with cosolvent or surfactant or cyclodextrin, 40% Methanol: 60% Water (% v/v)): < 10000 µg/mL; solubility ([12]; 50% 2-propanol: 50% water (% v/v), 40 °C, aqueous with cosolvent or surfactant or cyclodextrin): < 10000 µg/mL; solubility ([12]; N,N′-dimethylacetamide, organic solvent or mixture): 26000 µg/mL (≈ 48.2 mM); solubility ([12]; THF, 40 °C, organic solvent or mixture): < 10000 µg/mL; solubility ([12]; acetone, 40 °C, organic solvent or mixture): < 10000 µg/mL; solubility ([12]; acetonitrile, 40 °C, organic solvent or mixture): < 10000 µg/mL; solubility ([12]; anisole, 40 °C, organic solvent or mixture): < 10000 µg/mL; solubility ([12]; dichloromethane, organic solvent or mixture): 17000 µg/mL (≈ 31.5 mM); solubility ([12]; dimethylsulfoxide, 40 °C, organic solvent or mixture): < 10000 µg/mL; solubility ([12]; ethanol, 40 °C, organic solvent or mixture): < 10000 µg/mL; solubility ([12]; ethyl acetate, 40 °C, organic solvent or mixture): < 10000 µg/mL; solubility ([12]; ethyl ether, 40 °C, organic solvent or mixture): < 10000 µg/mL; solubility ([12]; heptane, 40 °C, organic solvent or mixture): < 10000 µg/mL; solubility ([12]; isopropyl acetate, 40 °C, organic solvent or mixture): < 10000 µg/mL; solubility ([12]; methanol, 40 °C, organic solvent or mixture): < 11000 µg/mL; solubility ([12]; methylethyl ketone, 40 °C, organic solvent or mixture): < 10000 µg/mL; solubility ([12]; methylisobutyl ketone, 40 °C, organic solvent or mixture): < 10000 µg/mL; solubility ([12]; n-hexane, 40 °C, organic solvent or mixture): < 10000 µg/mL; solubility ([12]; tert-butylmethyl ether, 40 °C, organic solvent or mixture): < 11000 µg/mL; solubility ([12]; toluene, 40 °C, organic solvent or mixture): < 10000 µg/mL; solubility ([12]; water, 40 °C, water): < 10000 µg/mL; device loaded dose resulting in the same lung AUC as the 150 mg oral dose [13]: 0.04 mg; device loaded dose resulting in the same plasma AUC as a 150 mg oral dose [13]: 0.42 mg; administered nintedanib excreted in the urine ([14]; in vivo): About 80%; oral bioavailability ([14]; oral nintedanib): 5%
